This note sets out measurements from PubChem BioAssay (NCI).

Where “and” joins values, the source holds several entries; their conditions need not be identical. Equal entries are not always repeated.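 Where inhibition never reached the appropriate level, the endpoint shown equals the highest concentration tested. Otherwise, values were interpolated linearly from a five-concentration, 48-hour dose response in 96-well plates. GI50 is the concentration that inhibits growth by half. TGI marks complete inhibition of growth.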 Where only a bound is given, the exact number is not on record here.

Some test systems named below: HL-60(TB) leukemia; MALME-3M melanoma; MCF7 breast; MDA-MB-231 breast; MDA-N; NCI-H23 lung; NCI-H522 lung; PC-3 prostate; SF-295 CNS; SNB-19 CNS.
Holding throughout (assay): growth of human tumour cells (NCI), 48 h

Consider `COC1(CC[C@@H](C)COC2OC(CO)C(O)C(O)C2O)O[C@H]2C[C@H]3[C@@H]4CC=C5C[C@@H](OC6OC(CO)C(O)C(OC7OC(CO)C(O)C(O)C7O)C6OC6OC(C)C(O)C(O)C6O)CC[C@]5(C)[C@H]4CC[C@]3(C)[C@H]2[C@@H]1C` (some centres undefined), for which the TGI amounted to 26.8 µM in the test with HL-60(TB) leukemia; 9.29 µM in the test on MALME-3M melanoma; 37.6 µM in the test with MCF7 breast; 16.5 µM in the test on MDA-MB-231 breast; 23.1 µM with MDA-N; 28.2 µM in the test on NCI-H23 lung. Further, the TGI with NCI-H522 lung came to 15.3 µM; in the test on PC-3 prostate, 21.4 µM; in the test with SF-295 CNS, 11.3 µM; in the test on SNB-19 CNS it was 21.2 µM.
In the case of `O=C(O)[C@H](CCC[C@H]1C(=O)O[C@H](c2ccccc2)[C@H](c2ccccc2)N1C(=O)OCc1ccccc1)N[C@@H](c1ccccc1)[C@H](O)c1ccccc1`, the TGI is 38.8 µM in the test on HL-60(TB) leukemia; 42.2 µM in the test with MALME-3M melanoma; more than 100 µM in the test with MCF7 breast; 33.1 µM with MDA-MB-231 breast; 53.1 µM with MDA-N; 85.4 µM in the test with NCI-H23 lung. Besides, the TGI in the test on NCI-H522 lung was 38.6 µM; with PC-3 prostate it was more than 100 µM; in the test on SF-295 CNS it was 81 µM; in the test with SNB-19 CNS, 61.3 µM.
`COC(=O)C1(SC)C2CCC3C2CCC31` (centres undefined): the TGI with HL-60(TB) leukemia, with MALME-3M melanoma, with MCF7 breast, with MDA-MB-231 breast, in the test on MDA-N and in the test on NCI-H23 lung was more than 100 µM each time. Besides, the TGI in the test on NCI-H522 lung, in the test with PC-3 prostate, in the test with SF-295 CNS and in the test on SNB-19 CNS was more than 100 µM throughout.
As for `CC(Oc1ccccc1)C(=O)NNC(=O)OC(C)(C)C` (centres undefined), the TGI with HL-60(TB) leukemia, in the test with MALME-3M melanoma, in the test on MCF7 breast, in the test on MDA-MB-231 breast, in the test with MDA-N and in the test on NCI-H23 lung was more than 100 µM in each case. Further, the TGI in the test with NCI-H522 lung, in the test with PC-3 prostate, in the test with SF-295 CNS and in the test on SNB-19 CNS was more than 100 µM each time.
As for `Br[C@@H]1[C@H]2c3nc4ccccc4nc3[C@@H]1C[C@H]2Br`, the TGI with HL-60(TB) leukemia, with MALME-3M melanoma, in the test on MCF7 breast, in the test with MDA-MB-231 breast, in the test with MDA-N and in the test with NCI-H23 lung was more than 100 µM throughout. Also, the TGI in the test on NCI-H522 lung, with PC-3 prostate, in the test on SF-295 CNS and in the test on SNB-19 CNS was more than 100 µM in each case.
Turning to `CN(CCNC(=O)c1c[nH]c2c1Cc1ccccc1-2)CCNC(=O)c1c[nH]c2c1Cc1ccccc1-2`, the TGI in the test with HL-60(TB) leukemia is 77.2 µM; in the test with MALME-3M melanoma it was more than 100 µM; in the test on MCF7 breast, 86 µM; in the test with MDA-MB-231 breast, 80.6 µM; in the test with MDA-N it was 33.9 µM; in the test on NCI-H23 lung it was more than 100 µM. Besides, the TGI in the test on NCI-H522 lung is 97 µM; in the test on PC-3 prostate, 41.9 µM; in the test with SF-295 CNS it was more than 100 µM; in the test with SNB-19 CNS, more than 100 µM.
For `CC(=O)OCC1OC(n2c(S)c(C#N)c(-c3ccccc3)c(C#N)c2=O)C(OC(C)=O)C(OC(C)=O)C1OC(C)=O` (centres undefined), the GI50 in the test on HL-60(TB) leukemia is > 100 µM and 17.4 µM; in the test with MALME-3M melanoma, > 100 µM and 32.2 µM; in the test on MCF7 breast, > 100 µM and 33.7 µM; with MDA-MB-231 breast, > 71.9 µM and 22.1 µM; in the test on MDA-N, > 100 µM and 28.3 µM; with NCI-H23 lung, > 100 µM and 45 µM. The GI50 in the test with NCI-H522 lung was 54.8 µM and 27 µM; with PC-3 prostate, > 100 µM and 43.5 µM; in the test on SF-295 CNS, 29.4 µM and > 100 µM. The TGI with HL-60(TB) leukemia was > 100 µM and 35.5 µM; with MALME-3M melanoma, > 100 µM and 98.9 µM; in the test on MCF7 breast, > 100 µM and 97.6 µM; with MDA-MB-231 breast, > 100 µM and 83.7 µM; with MDA-N, > 100 µM and 86.5 µM; in the test on NCI-H23 lung it was more than 100 µM. The TGI with NCI-H522 lung is > 100 µM and 51.3 µM; in the test on PC-3 prostate it was more than 100 µM; in the test on SF-295 CNS it was more than 100 µM; with SNB-19 CNS it was more than 100 µM.
For `COc1nc2ccc(COc3ccc(C(=O)O)cc3)cc2nc1OC`, the TGI in the test on HL-60(TB) leukemia, in the test on MALME-3M melanoma, in the test with MCF7 breast, with MDA-MB-231 breast, in the test with MDA-N and in the test with NCI-H23 lung was more than 100 µM in each case. Further, the TGI in the test on NCI-H522 lung, in the test on PC-3 prostate, with SF-295 CNS and in the test with SNB-19 CNS was more than 100 µM throughout.
With `CCOC(=O)c1c(SC(=O)c2ccc(OC)cc2)n(-c2ccccc2)c(=S)n(-c2ccccc2)c1=O`, the TGI with HL-60(TB) leukemia was 70.2 µM; in the test on MALME-3M melanoma it was more than 100 µM; in the test with MCF7 breast, more than 100 µM; with MDA-MB-231 breast, 81 µM; with MDA-N, more than 100 µM; in the test on NCI-H23 lung it was more than 100 µM. Moreover, the TGI in the test on NCI-H522 lung, with PC-3 prostate, in the test on SF-295 CNS and in the test with SNB-19 CNS was more than 100 µM each time.
As for `CCN1CCC(CNC(=O)c2ccc(N)cc2)N1CC` (centres undefined), the TGI with HL-60(TB) leukemia, with MALME-3M melanoma, with MCF7 breast, in the test with MDA-MB-231 breast, in the test with MDA-N and with NCI-H23 lung was more than 100 µM throughout. In addition, the TGI in the test on NCI-H522 lung, in the test with PC-3 prostate, in the test with SF-295 CNS and in the test on SNB-19 CNS was more than 100 µM throughout.
As to `Nc1nc(Cl)c(Cl)c(NCC2(O)CCC2)n1`, the TGI in the test on HL-60(TB) leukemia, in the test with MALME-3M melanoma, in the test on MCF7 breast, in the test with MDA-MB-231 breast, in the test on MDA-N and in the test on NCI-H23 lung was more than 100 µM in each case. Also, the TGI in the test on NCI-H522 lung was 40.9 µM; in the test with PC-3 prostate it was more than 100 µM; in the test on SF-295 CNS, more than 100 µM; in the test on SNB-19 CNS it was more than 100 µM.
On to `Cc1ccc2c(c1)nc1n2C(N)=Nc2ccccc2S1`, for which the TGI with HL-60(TB) leukemia was 6.86 µM; in the test with MALME-3M melanoma, more than 100 µM; in the test on MCF7 breast, more than 100 µM; in the test with MDA-MB-231 breast it was more than 100 µM; with MDA-N it was more than 100 µM; in the test on NCI-H23 lung, more than 100 µM. The TGI with NCI-H522 lung, with PC-3 prostate, in the test with SF-295 CNS and in the test with SNB-19 CNS was more than 100 µM throughout.
In the case of `CC1(C)COC2=C(C1)C(=O)c1ccccc1C2=O`, the TGI in the test with HL-60(TB) leukemia came to 2.71 µM; with MALME-3M melanoma, 3.29 µM; in the test with MCF7 breast it was 2.99 µM; with MDA-MB-231 breast, 4 µM; in the test on MDA-N, 0.325 µM; in the test on NCI-H23 lung it was 3.46 µM. Besides, the TGI with NCI-H522 lung turned out to be 3.8 µM; with PC-3 prostate it was 3.58 µM; in the test on SF-295 CNS, 3 µM; with SNB-19 CNS, 3.82 µM.
On to `O=c1c(Cc2ccc(Cl)cc2)nnc2sc(-c3ccc(-c4ccc(Cl)cc4Cl)o3)nn12`, for which the TGI in the test with HL-60(TB) leukemia, in the test on MALME-3M melanoma, in the test with MCF7 breast, in the test with MDA-MB-231 breast, in the test with MDA-N and with NCI-H23 lung was more than 100 µM each time. The TGI in the test on NCI-H522 lung, in the test with PC-3 prostate, in the test on SF-295 CNS and in the test on SNB-19 CNS was more than 100 µM each time.
Consider `CC1=C(C)CC2(C=C(C(C)(C)C)C(=O)C(C(C)(C)C)=C2)SC1`, for which the TGI stood at 64.6 µM in the test with HL-60(TB) leukemia; 33.4 µM in the test on MALME-3M melanoma; 36.6 µM in the test on MCF7 breast; 29.2 µM in the test on MDA-MB-231 breast; 90.3 µM in the test on MDA-N; 57.1 µM in the test with NCI-H23 lung. In addition, the TGI in the test on NCI-H522 lung turned out to be 16.5 µM; in the test with PC-3 prostate, 73.8 µM; with SF-295 CNS, 31.4 µM; in the test on SNB-19 CNS, 31.5 µM.
Consider `CCC(C)C1=C(O)[N+]2([O-])Oc3ccc(-c4c(O)c(O)c(-c5ccc(OC(C)=O)cc5)c(OC(C)=O)c4OC(C)=O)cc3OC2(C(C)CC)C(=O)N1O` (centres undefined), for which the TGI in the test with HL-60(TB) leukemia, with MALME-3M melanoma, in the test with MCF7 breast, with MDA-MB-231 breast, with MDA-N and with NCI-H23 lung was more than 50 µM throughout. Further, the TGI in the test with NCI-H522 lung, with PC-3 prostate, in the test on SF-295 CNS and with SNB-19 CNS was more than 50 µM each time.
As to `c1ccc2c(c1)cc1n2CCc2c-1[nH]c1ccccc21`, the TGI with HL-60(TB) leukemia, with MALME-3M melanoma, in the test on MCF7 breast, in the test with MDA-MB-231 breast, in the test on MDA-N and with NCI-H23 lung was more than 10 µM throughout. Besides, the TGI with NCI-H522 lung, in the test on PC-3 prostate, in the test with SF-295 CNS and in the test with SNB-19 CNS was more than 10 µM each time.
Turning to `CCOC(=O)C1(C#N)CC1`, the TGI in the test with HL-60(TB) leukemia, in the test on MALME-3M melanoma, in the test with MCF7 breast, in the test with MDA-MB-231 breast, in the test on MDA-N and with NCI-H23 lung was more than 100 µM in each case. Also, the TGI in the test on NCI-H522 lung, in the test on PC-3 prostate, in the test with SF-295 CNS and in the test on SNB-19 CNS was more than 100 µM throughout.
On to `[N-]=[N+]=CC(=O)OCCCCl`, for which the TGI with HL-60(TB) leukemia, in the test with MALME-3M melanoma, with MCF7 breast, in the test with MDA-MB-231 breast, in the test with MDA-N and in the test on NCI-H23 lung was more than 100 µM each time. Also, the TGI in the test with NCI-H522 lung, in the test with PC-3 prostate, in the test on SF-295 CNS and in the test with SNB-19 CNS was more than 100 µM each time.
`Cc1ccc2nc(-c3ccc(C(C)(C)C)cc3)oc(=O)c2c1`: the TGI in the test on HL-60(TB) leukemia was determined as 40 µM; with MALME-3M melanoma it was 53.9 µM; in the test on MCF7 breast, 63.1 µM; in the test with MDA-MB-231 breast, 54.2 µM; with MDA-N, 67.5 µM; with NCI-H23 lung, 68.1 µM. The TGI with NCI-H522 lung turned out to be 35 µM; with PC-3 prostate, 69.6 µM; in the test on SF-295 CNS it was 49 µM; in the test with SNB-19 CNS, 74.2 µM.
In the case of `O=C1C(c2c(O)[nH]c3ccc(Br)cc23)=Nc2ccc(Br)cc21`, the TGI was more than 100 µM in the test on HL-60(TB) leukemia; more than 100 µM in the test on MALME-3M melanoma; 43.1 µM in the test on MCF7 breast; 79.5 µM in the test with MDA-MB-231 breast; 63 µM with MDA-N; 88 µM in the test on NCI-H23 lung. Also, the TGI was more than 100 µM in the test on NCI-H522 lung, more than 100 µM with PC-3 prostate, more than 100 µM with SF-295 CNS and 92.4 µM with SNB-19 CNS.
